# Molecular target: p38 (Homo sapiens, UniProt Q16539)
# Test: Protein Kinase Assay (33P incorporation from γ-[33P]ATP into GST-ATF-2)
# Format: biochemical
# Details: 2 nM p38, preincubated 20 min at 30° C.; 10 uM cold ATP, 2 uM GST-ATF2, 70 min; read-out: ACT. (Activity), IC50 category in Protein Kinase Assay
# Protocol: Protein Kinase Assay. The protein kinase activity of p38 was determined by measuring the incorporation of ^33P from γ-[^33P]ATP into the GST-ATF-2 substrate, amino acids 19-96 (Upstate, N.Y. USA). The reactions were carried out in a final volume of 50 μL of 24 mM Tris-HCl buffer, pH 7.5, containing 13 mM MgCl2, 12% Glycerol, 2% DMSO, 2 mM DTT, […] of γ-[^33P]ATP (1000 Ci/mmol; 1 Ci=37 GBq) (GE Healthcare, Piscataway, N.J.), 10 uM cold ATP (GE Healthcare, Piscataway, N.J.), and 2 uM GST-ATF2. Compounds were preincubated with 2 nM p38 for 20 min at 30° C.; the reactions were initiated by the addition of GST-ATF2 and ATP and incubated for 70 min at 30° C. before being stopped by the addition of 10 μL of 600 mM phosphoric acid. The phosphorylated substrate was captured on phosphocellulose 96-well plate (Millipore MAPHNOB 10), washed with 100 mM phosphoric acid, and counted in a BeckmenCoulter LS6500 liquid scintillation counter. […] (Activity).
# Sequence of p38 (Q16539 whole entry): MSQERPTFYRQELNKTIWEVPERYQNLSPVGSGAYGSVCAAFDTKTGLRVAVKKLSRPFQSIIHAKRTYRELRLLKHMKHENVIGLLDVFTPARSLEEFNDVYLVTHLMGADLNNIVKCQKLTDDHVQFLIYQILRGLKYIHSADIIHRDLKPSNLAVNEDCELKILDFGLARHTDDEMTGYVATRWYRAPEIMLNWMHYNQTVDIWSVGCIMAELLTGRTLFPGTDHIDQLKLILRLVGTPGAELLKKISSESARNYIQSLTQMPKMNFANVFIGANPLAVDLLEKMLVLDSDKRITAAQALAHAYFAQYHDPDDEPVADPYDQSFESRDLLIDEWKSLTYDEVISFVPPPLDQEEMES
row,SMILES,IC50
1,"COc1ccc(-c2cc(NC(=O)Nc3cc(C(C)(C)C)sc3C(=O)N3CCN(C)C(=O)C3(C)C)ccc2C)cn1 [1-(5-tert-butyl-2-(2,2,4-trimethyl-3-oxopiperazine-1-carbonyl)thiophen-3-yl)-3-(3-(6-methoxypyridin-3-yl)-4-methylphenyl)urea]",< 100 nM
2,"COc1ccc(-c2cc(NC(=O)Nc3cc(C(C)(C)C)sc3C(=O)N3CCN(C)C(=O)C3(C)C)cc(F)c2C)cn1 [1-(5-tert-butyl-2-(2,2,4-trimethyl-3-oxopiperazine-1-carbonyl)thiophen-3-yl)-3-(3-fluoro-5-(6-methoxypyridin-3-yl)-4-methylphenyl)urea]",< 100 nM
3,"Cc1ccc(NC(=O)Nc2cc(C(C)(C)C)sc2C(=O)N2CCN(C)C(=O)C2(C)C)cc1-c1ccc(CN2CCOCC2)nc1 [1-(5-tert-butyl-2-(2,2,4-trimethyl-3-oxopiperazine-1-carbonyl)thiophen-3-yl)-3-(4-methyl-3-(6-(morpholinomethyl)pyridin-3-yl)phenyl)urea]",< 100 nM
4,"Cc1ccc(NC(=O)Nc2cc(C(C)(C)C)sc2C(=O)N2CCN(C)C(=O)C2(C)C)cc1-c1ccc(N2CCOCC2)nc1 [1-(5-tert-butyl-2-(2,2,4-trimethyl-3-oxopiperazine-1-carbonyl)thiophen-3-yl)-3-(4-methyl-3-(6-morpholinopyridin-3-yl)phenyl)urea]",< 100 nM
5,"Cc1ccc(NC(=O)Nc2cc(C(C)(C)C)oc2C(=O)N2CCNC(=O)C2(C)C)cc1-c1ccc(OCCN(C)C)nc1 [1-(5-tert-butyl-2-(2,2-dimethyl-3-oxopiperazine-1-carbonyl)furan-3-yl)-3-(3-(6-(2-(dimethylamino)ethoxy)pyridin-3-yl)-4-methylphenyl)urea]",< 100 nM
6,"Cc1ccc(NC(=O)Nc2cc(C(C)(C)C)sc2C(=O)N2CCNC(=O)C2(C)C)cc1-c1ccc(CN2CCOCC2)nc1 [1-(5-tert-butyl-2-(2,2-dimethyl-3-oxopiperazine-1-carbonyl)thiophen-2-yl)-3-(4-methyl-3-(6-(morpholinomethyl)pyridin-3-yl)phenyl)urea]",< 100 nM
7,"Cc1ccc(-c2ccc(N3CCOCC3)cn2)cc1NC(=O)Nc1cc(C(C)(C)C)sc1C(=O)N1CCNC(=O)C1(C)C [1-(5-tert-butyl-2-(2,2-dimethyl-3-oxopiperazine-1-carbonyl)thiophen-3-yl)-3-(2-methyl-5-(5-morpholinopyridin-2-yl)phenyl)urea]",< 100 nM
8,"COc1ccc(-c2cc(NC(=O)Nc3cc(C(C)(C)C)sc3C(=O)N3CCNC(=O)C3(C)C)ccc2C)cn1 [1-(5-tert-butyl-2-(2,2-dimethyl-3-oxopiperazine-1-carbonyl)thiophen-3-yl)-3-(3-(6-methoxypyridin-3-yl)-4-methylphenyl)urea]",< 100 nM
9,"Cc1cc(NC(=O)Nc2cc(C(C)(C)C)sc2C(=O)N2CCNC(=O)C2(C)C)cc(-c2ccc(N3CCOCC3)cn2)c1 [1-(5-tert-butyl-2-(2,2-dimethyl-3-oxopiperazine-1-carbonyl)thiophen-3-yl)-3-(3-methyl-5-(5-morpholinopyridin-2-yl)phenyl)urea]",< 100 nM
10,"Cc1ccc(NC(=O)Nc2cc(C(C)(C)C)sc2C(=O)N2CCNC(=O)C2(C)C)cc1-c1ccc(N2CCOCC2)cn1 [1-(5-tert-butyl-2-(2,2-dimethyl-3-oxopiperazine-1-carbonyl)thiophen-3-yl)-3-(4-methyl-3-(5-morpholinopyridin-2-yl)phenyl)urea]",< 100 nM
11,"Cc1ccc(NC(=O)Nc2cc(C(C)(C)C)sc2C(=O)N2CCNC(=O)C2(C)C)cc1-c1ccc(N2CCOCC2)nc1 [1-(5-tert-butyl-2-(2,2-dimethyl-3-oxopiperazine-1-carbonyl)thiophen-3-yl)-3-(4-methyl-3-(6-morpholinopyridin-3-yl)phenyl)urea]",< 100 nM
12,"CCN1CCN(C(=O)c2sc(C(C)(C)C)cc2NC(=O)Nc2ccc(C)c(-c3ccc(CN4CCOCC4)nc3)c2)C(C)(C)C1=O [1-(5-tert-butyl-2-(4-ethyl-2,2-dimethyl-3-oxopiperazine-1-carbonyl)thiophen-3-yl)-3-(4-methyl-3-(6-(morpholinomethyl)pyridin-3-yl)phenyl)urea]",< 100 nM
13,"Cc1ccc(NC(=O)Nc2cc(C(C)(C)C)sc2C(=O)N2CCN(C(C)C)C(=O)C2(C)C)cc1-c1ccc(CN2CCOCC2)nc1 [1-(5-tert-butyl-2-(4-isopropyl-2,2-dimethyl-3-oxopiperazine-1-carbonyl)thiophen-3-yl)-3-(4-methyl-3-(6-(morpholinomethyl)pyridin-3-yl)phenyl)urea]",< 100 nM
14,"CCc1ccc(-c2cc(NC(=O)Nc3sc(C(C)(C)C)cc3C(=O)N3CCN(C)C(=O)C3(C)C)ccc2C)nc1 [1-(5-tert-butyl-3-(2,2,4-trimethyl-3-oxopiperazine-1-carbonyl)thiophen-2-yl)-3-(3-(5-ethylpyridin-2-yl)-4-methylphenyl)urea]",< 100 nM
15,"Cc1ccc(NC(=O)Nc2sc(C(C)(C)C)cc2C(=O)N2CCN(C)C(=O)C2(C)C)cc1-c1ccc(C(C)(C)O)nc1 [1-(5-tert-butyl-3-(2,2,4-trimethyl-3-oxopiperazine-1-carbonyl)thiophen-2-yl)-3-(3-(6-(2-hydroxypropan-2-yl)pyridin-3-yl)-4-methylphenyl)urea]",< 100 nM
16,"CCc1ccc(-c2cc(NC(=O)Nc3sc(C(C)(C)C)cc3C(=O)N3CCN(C)C(=O)C3(C)C)ccc2C)cn1 [1-(5-tert-butyl-3-(2,2,4-trimethyl-3-oxopiperazine-1-carbonyl)thiophen-2-yl)-3-(3-(6-ethylpyridin-3-yl)-4-methylphenyl)urea]",< 100 nM
17,"CCc1ccc(-c2cc(NC(=O)Nc3sc(C(C)(C)C)cc3C(=O)N3CCN(C)C(=O)C3(C)C)cc(F)c2C)cn1 [1-(5-tert-butyl-3-(2,2,4-trimethyl-3-oxopiperazine-1-carbonyl)thiophen-2-yl)-3-(3-(6-ethylpyridin-3-yl)-5-fluoro-4-methylphenyl)urea]",< 100 nM
18,"Cc1ccc(NC(=O)Nc2sc(C(C)(C)C)cc2C(=O)N2CCN(C)C(=O)C2(C)C)cc1-c1ccc(OC(C)C)nc1 [1-(5-tert-butyl-3-(2,2,4-trimethyl-3-oxopiperazine-1-carbonyl)thiophen-2-yl)-3-(3-(6-isopropoxypyridin-3-yl)-4-methylphenyl)urea]",< 100 nM
19,"COc1ccc(-c2cc(NC(=O)Nc3sc(C(C)(C)C)cc3C(=O)N3CCN(C)C(=O)C3(C)C)ccc2C)cn1 [1-(5-tert-butyl-3-(2,2,4-trimethyl-3-oxopiperazine-1-carbonyl)thiophen-2-yl)-3-(3-(6-methoxypyridin-3-yl)-4-methylphenyl)urea]",< 100 nM

# Further lines, results first:
row,IC50,SMILES
1,< 100 nM,"CCc1ccc(-c2cc(NC(=O)Nc3cc(C(C)(C)C)sc3C(=O)N3CCN(C)C(=O)C3(C)C)cc(F)c2C)cn1 [1-(5-tert-butyl-2-(2,2,4-trimethyl-3-oxopiperazine-1-carbonyl)thiophen-3-yl)-3-(3-(6-ethylpyridin-3-yl)-5-fluoro-4-methylphenyl)urea]"
2,< 100 nM,Cc1ccc(NC(=O)Nc2cc(C(C)(C)C)sc2C(=O)N2CCN(C)C(=O)C2)cc1-c1ccc(CN2CCOCC2)nc1 [1-(5-tert-butyl-2-(4-methyl-3-oxopiperazine-1-carbonyl)thiophen-3-yl)-3-(4-methyl-3-(6-(morpholinomethyl)pyridin-3-yl)phenyl)urea]
3,< 100 nM,"COc1ccc(-c2cc(NC(=O)Nc3sc(C(C)(C)C)cc3C(=O)N3CCN(C)C(=O)C3(C)C)c(F)cc2C)cn1 [1-(5-tert-butyl-3-(2,2,4-trimethyl-3-oxopiperazine-1-carbonyl)thiophen-2-yl)-3-(2-fluoro-5-(6-methoxypyridin-3-yl)-4-methylphenyl)urea]"
4,< 100 nM,"Cc1ccc(NC(=O)Nc2sc(C(C)(C)C)cc2C(=O)N2CCN(C)C(=O)C2(C)C)cc1-c1cnc(NCC(O)CO)nc1 (stereo not drawn) [1-(5-tert-butyl-3-(2,2,4-trimethyl-3-oxopiperazine-1-carbonyl)thiophen-2-yl)-3-(3-(2-(2,3-dihydroxypropylamino)pyrimidin-5-yl)-4-methylphenyl)urea]"
5,< 100 nM,"Cc1ccc(NC(=O)Nc2sc(C(C)(C)C)cc2C(=O)N2CCN(C)C(=O)C2(C)C)cc1-c1ccc(C(C)O)nc1 (stereo not drawn) [1-(5-tert-butyl-3-(2,2,4-trimethyl-3-oxopiperazine-1-carbonyl)thiophen-2-yl)-3-(3-(6-(1-hydroxyethyl)pyridin-3-yl)-4-methylphenyl)urea]"
6,< 100 nM,"COCCOc1ccc(-c2cc(NC(=O)Nc3sc(C(C)(C)C)cc3C(=O)N3CCN(C)C(=O)C3(C)C)ccc2C)cn1 [1-(5-tert-butyl-3-(2,2,4-trimethyl-3-oxopiperazine-1-carbonyl)thiophen-2-yl)-3-(3-(6-(2-methoxyethoxy)pyridin-3-yl)-4-methylphenyl)urea]"
7,< 100 nM,"CCN(CC)Cc1ccc(-c2cc(NC(=O)Nc3sc(C(C)(C)C)cc3C(=O)N3CCN(C)C(=O)C3(C)C)ccc2C)cn1 [1-(5-tert-butyl-3-(2,2,4-trimethyl-3-oxopiperazine-1-carbonyl)thiophen-2-yl)-3-(3-(6-((diethylamino)methyl)pyridin-3-yl)-4-methylphenyl)urea]"
8,< 100 nM,"CCOc1ccc(-c2cc(NC(=O)Nc3sc(C(C)(C)C)cc3C(=O)N3CCN(C)C(=O)C3(C)C)ccc2C)cn1 [1-(5-tert-butyl-3-(2,2,4-trimethyl-3-oxopiperazine-1-carbonyl)thiophen-2-yl)-3-(3-(6-ethoxypyridin-3-yl)-4-methylphenyl)urea]"
